Experimental findings from US8877967B2, “Compositions and methods for inhibition of cathepsins” (OXiGENE, Inc., priority 2012, dated 2014) are described below.

Common to all, as to assay type: biochemical
For one assay, the target named is Human liver Cathepsin L (Homo sapiens (Human), UniProt P07711). As to the kind of experiment: Cathepsin L inhibition, fluorometric Z-F-R-AMC assay. Conditions: 1 nM cathepsin L, 50 μM Z-F-R-AMC, pH 5.5, 5 min preincubation, 25° C. On the procedure: Human liver Cathepsin L (Sigma) was preincubated with test compounds at various concentrations for 5 minutes at 25° C. The assay was initiated by addition of substrate Z-Phe-Arg-aminomethylcoumarin (“Z-F-R-AMC” Bacchem) and the final assay conditions were 1 nM cathepsin L, 50 μM Z-F-R-AMC, 100 mM sodium acetate pH 5.5, 1 mM EDTA (Omnipure), 3 mM DTT (EMD), 0.01% BRIJ 35 (Sigma), and 2.0% DMSO (Acros). Test compounds were serially diluted with DMSO and water to include a final concentration range of 10 μM to 10 pM. The reaction was monitored fluorometrically for 5 minutes at 25° C. using black 96-well Corning 3686 assay microplates with a Thermo Fluoroskan Ascent FL microplate reader at excitation and emission filter wavelengths of 355 nm and 460 nm, respectively. Data were analyzed to determine IC50 values utilizing GraphPad Prism 4.03 software with a minimum of a triplicate on the same microplate.
Chain of Human liver Cathepsin L (P07711 114-333): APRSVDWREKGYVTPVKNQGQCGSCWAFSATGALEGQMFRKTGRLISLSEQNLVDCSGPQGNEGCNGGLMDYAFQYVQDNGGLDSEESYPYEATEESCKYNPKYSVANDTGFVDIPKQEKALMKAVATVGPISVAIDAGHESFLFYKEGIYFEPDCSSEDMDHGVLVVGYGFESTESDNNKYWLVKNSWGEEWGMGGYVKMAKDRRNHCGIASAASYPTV

In assay [1] the target is Cathepsin K (activated recombinant human procathepsin K) (Homo sapiens (Human), UniProt P43235). As to the kind of experiment: Cathepsin K inhibition, fluorometric Z-F-R-AMC assay. The conditions noted are these: 1.5 nM cathepsin K, 50 μM Z-F-R-AMC, pH 5.5, 5 min preincubation, 25° C. The method, then: Recombinant human procathepsin K was obtained from Enzo Life Sciences. Activation of the proenzyme was performed in 32.5 mM sodium acetate pH 3.5, EDTA 1 mM, NaCl 500 mM, human procathepsin K 5.5 μM, at room temperature. Activation times were optimized and varied between 35 and 150 minutes. Cathepsin K was preincubated with test compounds at various concentrations for 5 minutes at 25° C. The assay was initiated by addition of substrate Z-Phe-Arg-aminomethylcoumarin (“Z-F-R-AMC” Bacchem) and the final assay conditions were 1.5 nM cathepsin K, 50 μM Z-F-R-AMC, 150 mM sodium acetate pH 5.5, 2.5 mM EDTA (Omnipure), 2.5 mM DTT (EMD), 0.01% BRIJ 35 (Sigma), and 4.0% DMSO (Acros). Test compounds were serially diluted with DMSO and water to include a final concentration range of 10 μM to 10 pM. The reaction was monitored fluorometrically for 5 minutes at 25° C. using black 96-well Corning 3686 assay microplates with a Thermo Fluoroskan Ascent FL microplate reader at excitation and emission filter wavelengths of 355 nm and 460 nm, respectively. Data were analyzed to determine IC50 values utilizing GraphPad Prism 4.03 software with a minimum of a triplicate on the same microplate.
Chain of Cathepsin K (activated recombinant human procathepsin K) (P43235 115-329): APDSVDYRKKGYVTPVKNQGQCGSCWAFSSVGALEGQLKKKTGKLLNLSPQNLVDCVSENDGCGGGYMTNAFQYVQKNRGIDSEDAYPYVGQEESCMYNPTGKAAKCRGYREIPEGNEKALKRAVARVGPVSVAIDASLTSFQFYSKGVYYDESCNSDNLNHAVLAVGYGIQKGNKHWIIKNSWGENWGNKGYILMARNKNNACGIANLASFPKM

The target in the next assay is Human liver Cathepsin B (Homo sapiens (Human), UniProt P07858). In words: Cathepsin B inhibition, fluorometric Z-R-R-AMC assay. Conditions: 1.1 nM cathepsin B, 60 μM Z-R-R-AMC, pH 6.0, 5 min preincubation, 37° C. On the procedure: Human liver Cathepsin B (Calbiochem) was pre-incubated with test compound at various concentrations for 5 minutes at 37° C. The assay was initiated by addition of substrate Z-Arg-Arg-aminomethylcoumarin (“Z-R-R-AMC” Bacchem) and the final assay conditions were 1.1 nM cathepsin B, 60 μM Z-R-R-AMC, 126 mM sodium potassium phosphate pH 6.0 (Fisher), 0.3 mM EDTA (Omnipure), 2.7 mM DTT (Omnipure), 0.004% BRIJ 35 (Sigma), and 2.0% DMSO (Acros) in a final volume of 200 μL. Test compounds were serially diluted with DMSO and 0.01% BRIJ 35 to include a final concentration range of 20 μM to 10 pM. The reaction was monitored fluorometrically for 5 minutes at 37° C. using black 96-well Corning 3686 assay microplates with a Thermo Fluoroskan Ascent FL microplate reader at excitation and emission filter wavelengths of 355 nm and 460 nm, respectively. Data were analyzed to determine IC50 values utilizing GraphPad Prism 4.03 software with a minimum of a triplicate on the same microplate.

The IC50 is the concentration that gives 50% inhibition. Regarding `NC(=S)NN=C(c1ccc(Br)cc1)c1cccc(C(=O)c2ccc(Br)cc2)c1` [Compound 24, 1,3-bis-(4-bromobenzoyl)benzene thiosemicarbazone], the IC50 (against Human liver Cathepsin L; in assay [1]; against Human liver Cathepsin B) was above 10000 nM in each case.

On to `NC(=S)NN=C(c1cc(Br)cc(C(=O)c2ccccc2F)c1)c1ccccc1F` [Compound 11, 1,3-bis(2-fluoro-benzoyl)-5-bromobenzene thiosemicarbazone], for which the IC50 against Human liver Cathepsin L was 8.12 nM; against Human liver Cathepsin B, above 10000 nM.

Take `CC(C)Oc1ccc(C(=O)c2cccc(C(=NNC(N)=S)c3ccc(OC(C)C)cc3)c2)cc1` [Compound 22, 1,3-bis-(4-isopropoxybenzoyl)benzene thiosemicarbazone]: the IC50 against Human liver Cathepsin L and against Human liver Cathepsin B was above 10000 nM each time.

Regarding `CC(C)Oc1ccc(C(=NNC(N)=S)c2cccc(C(=NNC(N)=S)c3ccc(OC(C)C)cc3)c2)cc1` [Compound 23, 1,3-bis-(4-isopropoxybenzoyl)benzene dithiosemicarbazone], the IC50 (against Human liver Cathepsin L; in assay [1]) was above 10000 nM each time.

As for `COc1ccc(C(=NNC(N)=S)c2cccc(C(=NNC(N)=S)c3ccc(OC)cc3)c2)cc1` [Compound 33, 1,3-bis-(4-methoxybenzoyl)benzene dithiosemicarbazone], the IC50 against Human liver Cathepsin L was 587 nM; in assay [1] it was 2100 nM; against Human liver Cathepsin B, above 10000 nM.

For `NC(=S)NN=C(c1ccccc1)c1cccc(C(=O)c2ccccc2)c1` [Compound 3, 3-benzoyl benzophenone thiosemicarbazone], the half-inhibitory concentration (IC50) at Human liver Cathepsin L was 10.5 nM; in assay [1] it was 17.4 nM; against Human liver Cathepsin B, above 10000 nM.

Consider `NC(=S)NN=C(c1ccccc1)c1cc(C(=O)c2ccccc2)cc(C(=O)c2ccccc2)c1` [Compound 25, 1,3,5-Tribenzoyl benzene thiosemicarbazone], for which the IC50 against Human liver Cathepsin L amounted to 25 nM; in assay [1], 2800 nM.

Take `NC(=S)NN=C(c1ccc(F)cc1)c1cccc(C(=O)c2ccc(F)cc2)c1` [Compound 13, 1,3-bis-(4-fluorobenzoyl)benzene thiosemicarbazone]: the IC50 was 24.3 nM against Human liver Cathepsin L, 8500 nM in assay [1] and above 10000 nM at Human liver Cathepsin B.

Regarding `NC(=S)NN=C(c1ccccc1)c1cccc(C(O)c2ccccc2)c1` (stereo not drawn) [Compound 6, 3-Benzoyl benzhydrol thiosemicarbazone], the figures for the IC50 at Human liver Cathepsin L and against Human liver Cathepsin B were 23.8 nM and above 10000 nM, respectively.

As to `Cc1cccc(C(=O)c2cccc(C(=NNC(N)=S)c3cccc(C)c3)c2)c1` [Compound 9, 1-(3-methylbenzoyl),3-(3-methylbenzoyl)benzene thiosemicarbazone], the concentration for half-maximal inhibition (IC50) turned out to be 7820 nM on Human liver Cathepsin L and 1030 nM in assay [1].
